From patent US20160304957A1, “TREATMENT AND MODULATION OF GENE EXPRESSION AND SKIN AGING” (DSM NUTRITIONAL PRODUCTS LTD., priority 2006, published 2016) come the findings set out here.

Structures are written as SMILES.

One assay has as its system caspase-3. The assay can be described thus: Caspase-3 activity, CaspACE Assay System. Format: cell-based, human. As for the experimental part:
Cells were supplemented with β-carotene for 2 days and prior to UVA irradiation (270 kJ/m^2). Caspase-3 activity was determined at 5 hours after irradiation. Values are mean±standard error of an experiment with four replicates.
Caspase-3 activity 5 hours after UVA irradiation was quantified in five separate experiments using the CaspACE™ Assay System (Promega/Catalys, Switzerland).

The test system of another assay is TIMP-1. Nature of the assay: QRT-PCR gene expression in HaCaT cells with or without UVA. Format: cell-based, human. As for the experimental part: HaCaT cells were obtained from Prof. Fusenig, German Cancer Research Centre, Heidelberg. […] The accuracy of cell counting was approximately 99%.
Vitamin E (RRR-α-tocopherol; DSM Nutritional Products, Kaiseraugst, Switzerland) stock solutions and vitamin E-containing media were prepared as described for β-carotene-containing solutions, except that vitamin E was dissolved in ethanol. In experiments addressing the vitamin E effect, vitamin E was used in a final concentration of 50 μM. Again, the solvent concentration was kept constant at 0.03% ethanol for all conditions.
On day 3 of the experiment, cells were washed six times with Ca/Mg-free PBS containing 2% BSA, and then irradiated with light with a Hönle sun lamp Sol 500 (Dr. Hönle, Plannegg, Germany) at a dose of 270 kJ/m^2 in Ca/Mg-free PBS (2 hour exposure time at […]). The experimental schedule was chosen because the cells had optimal UVA sensitivity after 48 hours in culture. […] Confluent cultures were much less sensitive to irradiation. […]
cDNA corresponding to 10 ng total RNA was used as template to quantify the relative RNA expression of the genes of interest by TaqMan® real time PCR.
The PCR analyses were carried out in triplicate and in a multiplex setup, using 18S rRNA as a calibrator gene. […] For quantification of the genes of interest, the primer concentrations were optimized for sensitivity of template detection. […] Regulation of gene expression was calculated as described in user bulletin #2 provided by the manufacturer. A threshold cycle (“CT”) is the first PCR cycle in which an amplification signal is detected. […] The δCT value describes the level of gene expression as the average PCR cycle, in which the gene of interest was detected first (CT value), subtracted by the CT value of the calibrator gene 18S rRNA (CTgene of interest−CTcalibrating gene), 18S rRNA served as a measure for the amount of template in the reaction. Routinely, 18S rRNA was detected between PCR cycle 12 and 13 (SE=standard error) A low δCT corresponds to a high mRNA level.

Turning to `CC1=C(/C=C/C(C)=C/C=C/C(C)=C/C=C/C=C(C)/C=C/C=C(C)/C=C/C2=C(C)CCCC2(C)C)C(C)(C)CCC1` [β-carotene, All-E-β-carotene], the caspase-3 activation entry in the assay on caspase-3 (β-carotene alone, unirradiated) is reported as “Neither UVA nor β-carotene alone activated caspase-3”. In addition, the caspase-3 activity entry with caspase-3 (β-carotene with UVA 270 kJ/m^2, 5 hours after irradiation) was “induce caspase-3 activity in a dose-dependent manner”. Besides, the TIMP-1 expression entry with TIMP-1 (UVA/D2O experiments) is recorded as “not significantly influenced”. For the same compound, in the assay on TIMP-1 (β-carotene, with or without UVA), the “TIMP-1 RNA level” value is given as “not significantly influenced”.
